Usually IC50 stands for the midpoint of a concentration-inhibition curve.

For the experiment, the target named is one or more of HDAC-4, HDAC-5, HDAC-6, HDAC-7, HDAC-8, HDAC-9, HDAC-10 and HDAC-11. The experiment can be described thus: Inhibition of histone deacetylase enzymatic activity (summary statement over isoforms). It counts as biochemical. The following applies: Table 3, selected examples; HDAC isoform not given. The gist of the method: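 Activity was measured as deacetylation of the fluorogenic substrate Boc-Lys(trifluoroacetyl)-AMC over 20-30 min at 37 °C, after a 5 min room-temperature preincubation of enzyme with compound. Trypsin (1 mg/mL) with a reference HDAC inhibitor ended the reaction.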
`Cc1ccccc1OC(C(=O)NO)c1ccccc1` (centres unmarked) [Compound 7-1, N-hydroxy-2-phenyl-2-(o-tolyloxy)acetamide] yielded an IC50 of 1000 to 15000 nM. On to `O=C(NO)C(c1ccccc1)N1CCCCC1` (centres unmarked) [Compound 1-4, N-hydroxy-2-phenyl-2-(piperidin-1-yl)acetamide], for which the half-maximal inhibitory concentration (IC50) was under 1000 nM. The figure for `COc1cccc(C(C(=O)NO)c2ccccc2)c1` (centres unmarked) [Compound 3-21, N-hydroxy-2-(3-methoxyphenyl)-2-phenylacetamide] is 1000 to 15000 nM. In turn, `O=C(NO)C(c1ccccc1)N1CC=C(c2c[nH]c3ccccc23)CC1` (centres unmarked) [Compound 5-7, 2-(4-(1H-indol-3-yl)-5,6-dihydropyridin-1(2H)-yl)-N-hydroxy-2-phenylacetamide] had an IC50 of under 1000 nM. Next, `O=C(NO)C(c1ccc(F)cc1)c1cccc(-c2ccccc2)c1` (centres unmarked) [Compound 5-89, 2-(biphenyl-3-yl)-2-(4-fluorophenyl)-N-hydroxyacetamide]: under 1000 nM; `O=C(NO)C(c1ccccc1)c1ccc(OCc2cccc(OC(F)(F)F)c2)cc1` (centres unmarked) [Compound 3-86, N-hydroxy-2-phenyl-2-(4-(3-(trifluoromethoxy)benzyloxy)phenyl)acetamide]: under 1000 nM; `Cc1cccc(C(=O)N2CCCN(C(C(=O)NO)c3ccccc3)CC2)c1` (centres unmarked) [Compound 2-29, N-hydroxy-2-(4-(3-methylbenzoyl)-1,4-diazepan-1-yl)-2-phenylacetamide]: 1000 to 15000 nM. Regarding `CN1CCN(c2ccc(C(C(=O)NO)c3ccccc3)cc2)CC1` (centres unmarked) [Compound 5-83, N-hydroxy-2-(4-(4-methylpiperazin-1-yl)phenyl)-2-phenylacetamide], the 50% inhibitory concentration (IC50) was under 1000 nM. Compound `COc1ccccc1-c1nnc(C(C(=O)NO)c2ccccc2)s1` (centres unmarked) [Compound 1-38, N-hydroxy-2-(5-(2-methoxyphenyl)-1,3,4-thiadiazol-2-yl)-2-phenylacetamide] showed an IC50 of under 1000 nM. The figure for `CN(C)c1ccc(C(C(=O)NO)c2ccc(O)cc2)cc1` (centres unmarked) [Compound 5-5, 2-(4-(dimethylamino)phenyl)-N-hydroxy-2-(4-hydroxyphenyl)acetamide] is under 1000 nM; for `O=C(NO)C(c1ccccc1)c1ccc(N2CCC(Cc3ccccc3)CC2)cc1` (centres unmarked) [Compound 5-51, 2-(4-(4-benzylpiperidin-1-yl)phenyl)-N-hydroxy-2-phenylacetamide] it is under 1000 nM; for `O=C(NO)C(c1ccccc1)c1ccc(-c2ccccc2)cc1` (centres unmarked) [Compound 1-32, 2-(biphenyl-4-yl)-N-hydroxy-2-phenylacetamide] it is under 1000 nM. `O=C(NO)C(c1ccccc1)[S+]([O-])c1ccccc1` (centres unmarked) [Compound 5-6, N-hydroxy-2-phenyl-2-(phenylsulfinyl)acetamide] gave a concentration for half-maximal inhibition (IC50) of 1000 to 15000 nM.

The compound `CC(Oc1cccc(C(C(=O)NO)c2ccccc2)c1)c1ccccc1` (centres unmarked) [Compound 3-8, N-hydroxy-2-phenyl-2-(3-(1-phenylethoxy)phenyl)acetamide] gave an IC50 of 1000 to 15000 nM. `O=C(NO)C(c1ccccc1)c1ccc(N2CCCCC2)cc1` (centres unmarked) [Compound 5-70, N-hydroxy-2-phenyl-2-(4-(piperidin-1-yl)phenyl)acetamide] registered an IC50 of under 1000 nM. In turn, `O=C(Nc1cccc(C(C(=O)NO)c2ccccc2)c1)C1CCCCC1` (centres unmarked) [Compound 2-58, N-(3-(2-(hydroxyamino)-2-oxo-1-phenylethyl)phenyl)cyclohexanecarboxamide] yielded an IC50 of 1000 to 15000 nM. `O=C(NO)C(c1ccccc1)c1ccc(OC2CCCC2)cc1` (centres unmarked) [Compound 3-53, 2-(4-(cyclopentyloxy)phenyl)-N-hydroxy-2-phenylacetamide]: the IC50 is under 1000 nM. The figure for `O=C(NO)C(Sc1nccc(-c2cccs2)n1)c1ccccc1` (centres unmarked) [Compound 2-48, N-hydroxy-2-phenyl-2-(4-(thiophen-2-yl)pyrimidin-2-ylthio)acetamide] is 1000 to 15000 nM; for `O=C(Nc1cccc(C(C(=O)NO)c2ccccc2)c1)c1ccccc1` (centres unmarked) [Compound 2-56, N-(3-(2-(hydroxyamino)-2-oxo-1-phenylethyl)phenyl)benzamide] it is 1000 to 15000 nM; for `CCCC(=O)ONC(=O)C(c1ccccc1)c1ccc(N2CCOCC2)cc1` (centres unmarked) [Compound 5-128, N-(butyryloxy)-2-(4-morpholinophenyl)-2-phenylacetamide] it is 1000 to 15000 nM. Next, `O=C(NO)C(c1ccccc1)c1ccc(Oc2ccccc2)cc1` (centres unmarked) [Compound 5-111, N-hydroxy-2-(4-phenoxyphenyl)-2-phenylacetamide]: under 1000 nM; `O=C(NO)C(c1ccccc1)c1ccc(-c2ccc(F)c(F)c2)cc1` (centres unmarked) [Compound 5-49, 2-(3′,4′-difluorobiphenyl-4-yl)-N-hydroxy-2-phenylacetamide]: under 1000 nM. The figure for `O=C(NO)C(Oc1ccc(C(F)(F)F)cc1)c1ccccc1` (centres unmarked) [Compound 7-44, N-hydroxy-2-phenyl-2-(4-(trifluoromethyl)phenoxy)acetamide] is 1000 to 15000 nM.

Source of the values: patent US9096565B2, “Inhibitors of histone deacetylase” (MethylGene Inc., priority 2007, dated 2015).
